Key:
Assay in all cases: relative viability (nuclei count vs DMSO), 5 days (fraction); higher = more cells survive
LCLC-97TM1 = tested on: LCLC-97TM1
Procedure, shortened: (§1)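 Lung cancer cell lines in 1536-well plates were dosed by pin tool the day after seeding, either with one drug alone or with a fixed anchor-drug dose plus five library-drug doses (not always all listed) in √10 steps. After 5 days, cells were fixed and their nuclei stained in one step (final 0.05% Triton X-100, 1% formaldehyde, 1 ug/ml Hoechst), then counted on 4× images. Relative viability is the nuclei count in treated wells divided by that in vehicle wells. Values are medians of duplicate plates.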

NCI-H2126 = tested on: NCI-H2126
Procedure, shortened: as §1

NCI-H1915 = tested on: NCI-H1915
Procedure, shortened: as §1

LC-2-ad = tested on: LC-2-ad
Procedure, shortened: as §1

NCI-H2347 = tested on: NCI-H2347
Procedure, shortened: as §1

NCI-H1666 = tested on: NCI-H1666
Procedure, shortened: as §1

EPLC-272H = tested on: EPLC-272H
Procedure, shortened: as §1

PC-14 = tested on: PC-14
Procedure, shortened: as §1

NCI-H2405 = tested on: NCI-H2405
Procedure, shortened: as §1

ChaGo-K-1 = tested on: ChaGo-K-1
Procedure, shortened: as §1

RERF-LC-KJ = tested on: RERF-LC-KJ
Procedure, shortened: as §1

HCC-78 = tested on: HCC-78
Procedure, shortened: as §1

NCI-H647 = tested on: NCI-H647
Procedure, shortened: as §1

NCI-H650 = tested on: NCI-H650
Procedure, shortened: as §1

H3255 = tested on: H3255
Procedure, shortened: as §1

COR-L 105 = tested on: COR-L 105
Procedure, shortened: as §1

NCI-H2087 = tested on: NCI-H2087
Procedure, shortened: as §1

201T = tested on: 201T
Procedure, shortened: as §1

NCI-H520 = tested on: NCI-H520
Procedure, shortened: as §1

HCC-827 = tested on: HCC-827
Procedure, shortened: as §1

NCI-H322M = tested on: NCI-H322M
Procedure, shortened: as §1

NCI-H661 = tested on: NCI-H661
Procedure, shortened: as §1

NCI-H23 = tested on: NCI-H23
Procedure, shortened: as §1

For NC(=O)Nc1cc(-c2cccc(F)c2)sc1C(=O)N[C@H]1CCCNC1 [AZD7762] + CC(=O)c1c(C)c2cnc(Nc3ccc(N4CCNCC4)cn3)nc2n(C2CCCC2)c1=O [Palbociclib] (partner 0.5 µM), the relative viability (LCLC-97TM1; first compound 0.01 µM) was 0.214, the relative viability (LCLC-97TM1; first compound 0.03162 µM) was 0.221 and the relative viability (LCLC-97TM1; first compound 0.1 µM) was 0.253. For the same compound, the relative viability (LCLC-97TM1; first compound 0.3162 µM) was 0.28, the relative viability (LCLC-97TM1; first compound 1 µM) was 0.274 and the relative viability (NCI-H2126; first compound 0.01 µM) was 0.353. It also gave a relative viability (NCI-H2126; first compound 0.03162 µM) of 0.363, a relative viability (NCI-H2126; first compound 0.1 µM) of 0.346 and a relative viability (NCI-H2126; first compound 0.3162 µM) of 0.369. It also gave a relative viability (NCI-H2126; first compound 1 µM) of 0.397, a relative viability (NCI-H1915; first compound 0.01 µM) of 0.552 and a relative viability (NCI-H1915; first compound 0.03162 µM) of 0.608. For the same compound, the relative viability (NCI-H1915; first compound 0.1 µM) was 0.606, the relative viability (NCI-H1915; first compound 0.3162 µM) was 0.617 and the relative viability (NCI-H1915; first compound 1 µM) was 0.563. It also gave a relative viability (LC-2-ad; first compound 0.01 µM) of 0.499, a relative viability (LC-2-ad; first compound 0.03162 µM) of 0.521 and a relative viability (LC-2-ad; first compound 0.1 µM) of 0.463. For the same compound, the relative viability (LC-2-ad; first compound 0.3162 µM) was 0.365, the relative viability (LC-2-ad; first compound 1 µM) was 0.367 and the relative viability (NCI-H2347; first compound 0.01 µM) was 0.542. The relative viability (NCI-H2347; first compound 0.03162 µM) was 0.469, the relative viability (NCI-H2347; first compound 0.1 µM) was 0.479 and the relative viability (NCI-H2347; first compound 0.3162 µM) was 0.509. It also gave a relative viability (NCI-H2347; first compound 1 µM) of 0.461, a relative viability (NCI-H1666; first compound 0.01 µM) of 0.609 and a relative viability (NCI-H1666; first compound 0.03162 µM) of 0.728. For the same compound, the relative viability (NCI-H1666; first compound 0.1 µM) was 0.701, the relative viability (NCI-H1666; first compound 0.3162 µM) was 0.565 and the relative viability (NCI-H1666; first compound 1 µM) was 0.65. The relative viability (EPLC-272H; first compound 0.01 µM) was 0.325, the relative viability (EPLC-272H; first compound 0.03162 µM) was 0.297 and the relative viability (EPLC-272H; first compound 0.1 µM) was 0.351. The relative viability (EPLC-272H; first compound 0.3162 µM) was 0.307, the relative viability (EPLC-272H; first compound 1 µM) was 0.362 and the relative viability (PC-14; first compound 0.01 µM) was 0.601. For the same compound, the relative viability (PC-14; first compound 0.03162 µM) was 0.469, the relative viability (PC-14; first compound 0.1 µM) was 0.326 and the relative viability (PC-14; first compound 0.3162 µM) was 0.203. It also gave a relative viability (PC-14; first compound 1 µM) of 0.0753, a relative viability (NCI-H2405; first compound 0.01 µM) of 0.516 and a relative viability (NCI-H2405; first compound 0.03162 µM) of 0.538. It also gave a relative viability (NCI-H2405; first compound 0.1 µM) of 0.465, a relative viability (NCI-H2405; first compound 0.3162 µM) of 0.507 and a relative viability (NCI-H2405; first compound 1 µM) of 0.302. It also gave a relative viability (ChaGo-K-1; first compound 0.01 µM) of 1.01, a relative viability (ChaGo-K-1; first compound 0.03162 µM) of 0.953 and a relative viability (ChaGo-K-1; first compound 0.1 µM) of 0.958. For the same compound, the relative viability (ChaGo-K-1; first compound 0.3162 µM) was 0.932, the relative viability (ChaGo-K-1; first compound 1 µM) was 1.03 and the relative viability (RERF-LC-KJ; first compound 0.01 µM) was 1.09. It also gave a relative viability (RERF-LC-KJ; first compound 0.03162 µM) of 1.07, a relative viability (RERF-LC-KJ; first compound 0.1 µM) of 1.06 and a relative viability (RERF-LC-KJ; first compound 0.3162 µM) of 1.01. The relative viability (RERF-LC-KJ; first compound 1 µM) was 0.965, the relative viability (HCC-78; first compound 0.01 µM) was 0.444 and the relative viability (HCC-78; first compound 0.03162 µM) was 0.461. The relative viability (HCC-78; first compound 0.1 µM) was 0.444, the relative viability (HCC-78; first compound 0.3162 µM) was 0.518 and the relative viability (HCC-78; first compound 1 µM) was 0.454. The relative viability (NCI-H647; first compound 0.01 µM) was 0.434, the relative viability (NCI-H647; first compound 0.03162 µM) was 0.424 and the relative viability (NCI-H647; first compound 0.1 µM) was 0.359. It also gave a relative viability (NCI-H647; first compound 0.3162 µM) of 0.163, a relative viability (NCI-H647; first compound 1 µM) of 0.125 and a relative viability (NCI-H650; first compound 0.01 µM) of 0.377. For the same compound, the relative viability (NCI-H650; first compound 0.03162 µM) was 0.374, the relative viability (NCI-H650; first compound 0.1 µM) was 0.403 and the relative viability (NCI-H650; first compound 0.3162 µM) was 0.38. For the same compound, the relative viability (NCI-H650; first compound 1 µM) was 0.382, the relative viability (H3255; first compound 0.01 µM) was 0.329 and the relative viability (H3255; first compound 0.03162 µM) was 0.312. The relative viability (H3255; first compound 0.1 µM) was 0.362, the relative viability (H3255; first compound 0.3162 µM) was 0.366 and the relative viability (H3255; first compound 1 µM) was 0.35. It also gave a relative viability (COR-L 105; first compound 0.01 µM) of 0.414, a relative viability (COR-L 105; first compound 0.03162 µM) of 0.415 and a relative viability (COR-L 105; first compound 0.1 µM) of 0.367. For the same compound, the relative viability (COR-L 105; first compound 0.3162 µM) was 0.386, the relative viability (COR-L 105; first compound 1 µM) was 0.372 and the relative viability (NCI-H2087; first compound 0.01 µM) was 0.213. The relative viability (NCI-H2087; first compound 0.03162 µM) was 0.298, the relative viability (NCI-H2087; first compound 0.1 µM) was 0.243 and the relative viability (NCI-H2087; first compound 0.3162 µM) was 0.274. For the same compound, the relative viability (NCI-H2087; first compound 1 µM) was 0.317, the relative viability (201T; first compound 0.01 µM) was 0.361 and the relative viability (201T; first compound 0.03162 µM) was 0.348. The relative viability (201T; first compound 0.1 µM) was 0.361, the relative viability (201T; first compound 0.3162 µM) was 0.386 and the relative viability (201T; first compound 1 µM) was 0.402. It also gave a relative viability (NCI-H520; first compound 0.01 µM) of 0.244, a relative viability (NCI-H520; first compound 0.03162 µM) of 0.255 and a relative viability (NCI-H520; first compound 0.1 µM) of 0.189. It also gave a relative viability (NCI-H520; first compound 0.3162 µM) of 0.232, a relative viability (NCI-H520; first compound 1 µM) of 0.189 and a relative viability (HCC-827; first compound 0.01 µM) of 0.544. It also gave a relative viability (HCC-827; first compound 0.03162 µM) of 0.469, a relative viability (HCC-827; first compound 0.1 µM) of 0.486 and a relative viability (HCC-827; first compound 0.3162 µM) of 0.498. For the same compound, the relative viability (HCC-827; first compound 1 µM) was 0.303, the relative viability (NCI-H322M; first compound 0.01 µM) was 0.477 and the relative viability (NCI-H322M; first compound 0.03162 µM) was 0.517. The relative viability (NCI-H322M; first compound 0.1 µM) was 0.465, the relative viability (NCI-H322M; first compound 0.3162 µM) was 0.523 and the relative viability (NCI-H322M; first compound 1 µM) was 0.441. It also gave a relative viability (NCI-H661; first compound 0.01 µM) of 0.447, a relative viability (NCI-H661; first compound 0.03162 µM) of 0.456 and a relative viability (NCI-H661; first compound 0.1 µM) of 0.497. The relative viability (NCI-H661; first compound 0.3162 µM) was 0.461, the relative viability (NCI-H661; first compound 1 µM) was 0.344 and the relative viability (NCI-H23; first compound 0.01 µM) was 0.58. For the same compound, the relative viability (NCI-H23; first compound 0.03162 µM) was 0.629, the relative viability (NCI-H23; first compound 0.1 µM) was 0.73 and the relative viability (NCI-H23; first compound 0.3162 µM) was 0.456. The relative viability (NCI-H23; first compound 1 µM) was 0.281.
